Laboratory results: PMC5854708, “Grass Carp Prolactin Gene: Structural Characterization and Signal Transduction for PACAP-induced Prolactin Promoter Activity” (Scientific Reports, 2018)

Assays:
[1] = tested on: grass carp PRL promoter deletion/mutation/truncation constructs in αT3-1 cells; assay: Deletion, mutagenesis and truncation analysis of PRL promoter activity, dual-luciferase, αT3-1 cells; type: cell-based, grass carp (promoter); rat (αT3-1 cells, as printed); settings: PACAP 10 nM, 24 hrs, n = 4
Procedure: To test the functionality of the grass carp PRL promoter, a series of deletion constructs were prepared by subcloning decreasing lengths of 5′ promoter sequence of PRL gene into the luciferase-expressing reporter pGL3.Basic. […] In this study, the upstream promoter of the carp PRL gene, including pPRL(−1156), pPRL(−914), pPRL(−670), pPRL(−448) and pPRL(−306), acted as strong promoters in αT3-1 cells. […] Subsequently, mutagenesis and truncation analysis were performed to investigate the role of transcription sites in PRL promoter activity.
Figure 3 Deletion, mutagenesis and truncation analysis of PRL promoter activity in αT3-1 cells. (A) Deletion analysis of the oPACAP38-induced PRL promoter activity. […] TEXT PRINTED IN THE PICTURE: (A) oPACAP38: pPRL(-1156).LUC: X 4.80 ± 0.15 *; pPRL(-914).LUC: X 4.51 ± 0.26 *; pPRL(-670).LUC: X 3.85 ± 0.17 *; pPRL(-448).LUC: X 3.79 ± 22 *; pPRL(-306).LUC: X 3.83 ± 0.12 *; pPRL(-166).LUC: X 3.26 ± 0.20 *; pPRL(-124).LUC: X 3.57 ± 0.19 *; pPRL(-57).LUC: X 2.09 ± 0.12 * DOUBTS OF THE COPYIST ABOUT THIS PICTURE: oPACAP38, pPRL(-448).LUC: the error reads '± 22' with no decimal point visible; '0.' may be missing or hidden / oPACAP38, pPRL(-306).LUC: 3.83 or 3.63 (small rotated print crossed by the dotted frame line) / The fold values (X ...) are printed over the oPACAP38 bars, one per promoter construct. […]

[2] = tested on: αT3-1 cells, total IP; assay: Total inositol phosphate measurement in αT3-1 cells; type: cell-based, rat (αT3-1 cells, as printed); settings: myo-[3H] inositol labelled αT3-1 cells, 10 mM LiCl; treatment 45 min; GnRH 1 μM
Procedure: Figure 7 Functional role of the PLC/IP3/PKC and CaM/CaMK-II cascades in PACAP- and Forskolin-induced PRL promoter activity. αT3-1 cells were transiently transfected with pPRL(−1156).LUC for 6 h by using lipofectamine. After 18 h recovery, the cells were incubated with respective drugs. […] (B) Transfected αT3-1 cells were labeled with 2 μCi/well of myo-[3 H] inositol (DuPont/NEN) in myo-inositol free DMEM medium containing 10% fetal bovine serum and then treated with oPACAP38, VIP, and GnRH for 45 mins. The total IP production were analyzed by detecting the radio-labelled inositol incorporation.
Transfected αT3-1 cells were labeled with 2 μCi/well of myo-[^3H] inositol (DuPont/NEN) in myo-inositol free DMEM medium containing 10% fetal bovine serum. After incubation for 12 hr at 37 °C, myo-[^3H] inositol labeling medium was removed, and αT3-1 cells were washed two times with prewarmed phosphate buffered saline (PBS; pH 7.4) to remove trace of the excessive myo-[^3H] inositol. The transfected cells were then incubated in DMEM containing 0.1% BSA and 10 mM LiCl (to inhibit inositol phosphate degradation) for 20 min at 37 °C before drug treatment. After that, the transfected cells were treated with ovine PACAP38, VIP, and GnRH for 45 min. […] Levels of radioactivity in these samples were measured using a liquid scintillation counter (Beckman).

[3] = tested on: tCREB in grass carp pituitary cells; assay: Western blot of tCREB in primary grass carp pituitary cells; settings: oPACAP38, 24 hrs

pituitary adenylate cyclase-activating peptide [PACAP]
PACAP-stimulated promoter activity upon mutagenesis and truncation of AP-1 site ([1]; AP-1 site −136 to −130, pPRL(−166).Luc): significantly suppressed
PACAP-stimulated promoter activity upon mutagenesis and truncation of C/EBPalpha site ([1]; C/EBPalpha site −226 to −217, pPRL(−306).Luc): significantly suppressed
total IP level [2]: enhance total IP level
total CREB production [3]: stimulated total CREB production
